Molecular target: T1, PSZ-1 (AmpC β-lactamase)
T1 construct: gene blaPSZ-1; recombinant PSZ-1 from pCold I in E. coli BL21, His-tag removed with thrombin
Test: inhibition of nitrocefin hydrolysis, […] min preincubation, […]°C
Assay type: biochemical, Pantoea endophytica

SMILES | IC50 [µM]
NC(=O)[C@@H]1CC[C@@H]2CN1C(=O)N2OS(=O)(=O)O [avibactam] | 0.0555
C[C@]1(Cn2ccnn2)[C@H](C(=O)O)N2C(=O)C[C@H]2S1(=O)=O [tazobactam] | 7.96
